Reference: article PMC8699473, “An Easily Expandable Multi-Drug LC-MS Assay for the Simultaneous Quantification of 57 Oral Antitumor Drugs in Human Plasma” (Cancers, 2021)

Assay: Short-term stability in spiked pooled human plasma (bench-top, 4 °C, 56 °C)

| SMILES | Short-time stability (1h, 56°C) Accuracy [%] (validation standard 2xLLOV) | Short-time stability (24h, 4°C, without daylight) Accuracy [%] (validation standard 2xLLOV) | Short-time stability (24h, RT, with daylight) Accuracy [%] (validation standard 2xLLOV) | Short-time stability (24h, RT, without daylight) Accuracy [%] (validation standard 2xLLOV) | Short-time stability (1h, 56°C) Accuracy [%] (validation standard LLOV) | Short-time stability (24h, 4°C, without daylight) Accuracy [%] (validation standard LLOV) | Short-time stability (24h, RT, with daylight) Accuracy [%] (validation standard LLOV) | Short-time stability (24h, RT, without daylight) Accuracy [%] (validation standard LLOV) | Short-time stability (1h, 56°C) Accuracy [%] (validation standard MOV) | Short-time stability (24h, 4°C, without daylight) Accuracy [%] (validation standard MOV) | Short-time stability (24h, RT, with daylight) Accuracy [%] (validation standard MOV) | Short-time stability (24h, RT, without daylight) Accuracy [%] (validation standard MOV) | Short-time stability (1h, 56°C) Accuracy [%] (validation standard ULOV) | Short-time stability (24h, 4°C, without daylight) Accuracy [%] (validation standard ULOV) | Short-time stability (24h, RT, with daylight) Accuracy [%] (validation standard ULOV) | Short-time stability (24h, RT, without daylight) Accuracy [%] (validation standard ULOV) |
| --- | --- | --- | --- | --- | --- | --- | --- | --- | --- | --- | --- | --- | --- | --- | --- | --- |
| CO[C@@H]1[C@H](N(C)C(=O)c2ccccc2)C[C@H]2O[C@]1(C)n1c3ccccc3c3c4c(c5c6ccccc6n2c5c31)C(=O)NC4 [Midostaurin] | 45.3 | 93.5 | 91.7 | 88.1 | 39.0 | 90.3 | 89.5 | 85.7 | 41.7 | 103.7 | 88.3 | 91.0 | 37.7 | 98.8 | 89.5 | 88.4 |
| CNC(=O)c1ccc(N2C(=S)N(c3ccc(C#N)c(C(F)(F)F)c3)C(=O)C2(C)C)cc1F [Enzalutamide] | 59.4 | 103.3 | 106.1 | 108.3 | 50.0 | 102.0 | 100.4 | 103.0 | 58.9 | 98.9 | 108.7 | 107.8 | 50.9 | 95.8 | 103.4 | 103.8 |
| CS(=O)(=O)CCNCc1ccc(-c2ccc3ncnc(Nc4ccc(OCc5cccc(F)c5)c(Cl)c4)c3c2)o1 [Lapatinib] | 19.2 | 96.4 | 46.9 | 53.0 | -24.8 | 92.5 | 5.2 | 14.4 | 46.1 | 97.9 | 93.5 | 109.4 | 42.5 | 94.3 | 100.7 | 112.4 |
| Cc1[nH]c2ccccc2c1CCNCc1ccc(/C=C/C(=O)NO)cc1 [Panobinostat] | 27.6 | 81.5 | 53.1 | 45.4 | 1.9 | 66.1 | -0.2 | 52.8 | 48.8 | 93.6 | 92.2 | 96.2 | 46.3 | 89.2 | 96.0 | 100.4 |
| CC(=O)Nc1cccc(-n2c(=O)n(C3CC3)c(=O)c3c(Nc4ccc(I)cc4F)n(C)c(=O)c(C)c32)c1 [Trametinib] | 40.7 | 101.9 | 88.2 | 94.3 | 0.4 | 90.4 | 78.3 | 53.1 | 52.0 | 115.0 | 101.6 | 99.7 | 47.5 | 108.2 | 96.8 | 92.2 |
| O=C(Nc1cnn2ccc(N3CCC[C@@H]3c3cc(F)ccc3F)nc12)N1CC[C@H](O)C1 [Larotrectinib] | 58.9 | 104.3 | 109.3 | 102.4 | 44.4 | 107.8 | 115.6 | 100.1 | 58.2 | 99.9 | 106.3 | 110.8 | 50.9 | 98.3 | 105.3 | 104.5 |
| Cc1cc(Nc2ncc(Cl)c(Nc3ccccc3S(=O)(=O)C(C)C)n2)c(OC(C)C)cc1C1CCNCC1 [Ceritinib] | 39.7 | 95.5 | 66.9 | 72.2 | 42.5 | 102.1 | 70.9 | 77.7 | 34.6 | 93.9 | 84.1 | 92.2 | 32.0 | 92.7 | 91.8 | 96.2 |
